The IC50 is the midpoint of a concentration-inhibition curve. By EC50 is commonly meant the midpoint of the concentration-response curve. One may read the CC50 as the concentration giving 50% cytotoxicity. The term half-life denotes the time needed for the level to fall by half in the phase considered. A lower half-life goes with fast loss. One may read the clearance as a measure of how efficiently the substance is removed, as volume per time. Higher therefore signals efficient removal.

A short description of series [1]: Displacement of [3H](S)-2-(tert-butoxy)-2-(2-methyl-4-(p-tolyl)quinolin-3-yl)acetic acid from LEDGF-binding site of recombinant T124/T125 polymorphic HIV1 integrase by LIDIA assay. More on the design: species or system Human immunodeficiency virus 1.
Series [2] deals with Human immunodeficiency virus 1. The experiment in a line: Antiviral activity against recombinant HIV1 NLRep-Rluc harbouring polymorphic T124/T125 integrase infected in human MT-2 cells assessed as inhibition of virus growth in presence of fetal bovine serum by measuring luciferase activity after 5 days. Format: functional, organism-based, MT2.
Series [3] in a line: Cytotoxicity against human MT2 cells assessed as cell viability measured after 4 days by XTT assay. Format: toxicity, cell-based. The note with it: time 4 day.
Series [4] can be described thus: Metabolic stability in rat liver microsome assessed half life at 0.5 uM by LC-MS/MS analysis. Format: ADME. Particulars: liver microsomes. (Liver microsomes are vesicles of endoplasmic reticulum, rich in cytochrome P450 enzymes.)
A short description of series [5]: Metabolic stability in human liver microsome assessed half life at 0.5 uM by LC-MS/MS analysis. Format: ADME. Particulars: liver microsomes.
A short description of series [6]: Clearance in Sprague-Dawley rat at 1 mg/kg, iv by LC-MS/MS analysis. Format: ADME, organism-based. The note with it: in vivo.
The mark [7] stands for this setting: Human immunodeficiency virus 1, NLRep, MT2, 120 h.

Turning to `Cc1nc(C)c([C@H](OC(C)(C)C)C(=O)O)c(N2CCC(C)(C)CC2)c1-c1ccc(Cc2ccccc2)cc1`, the IC50 in series [1] turned out to be 13.4 nM. For the same molecule, in series [2] (setting [7]), the EC50 came to 12.2 nM. Also, the CC50 at 96 h in series [3] is not below 20000 nM.

For the molecule `COc1ccc(CCOc2ccc(-c3c(C)nc(C)c([C@H](OC(C)(C)C)C(=O)O)c3N3CCC(C)(C)CC3)cc2)cc1`, in series [1], the IC50 was 13.2 nM. For the same molecule, the EC50 in series [2] (setting [7]) came out at 3.9 nM. Also, in series [3], the CC50 at 96 h is not below 33500 nM. Besides, the half-life at 0.5 µM in series [4] and in series [5] was more than 2 h each time. This molecule also yielded a clearance in series [6] of 13.4 mL/min/kg.

Turning to `Cc1nc(C)c([C@H](OC(C)(C)C)C(=O)O)c(N2CCC(C)(C)CC2)c1-c1ccc(OCCc2ccc(F)cc2F)cc1`, the IC50 in series [1] was found to be 11.6 nM. Moreover, in series [2] (setting [7]), the EC50 is 3.6 nM. Also, the CC50 at 96 h in series [3] is not below 33500 nM. Besides, the half-life at 0.5 µM in series [4] is more than 2 h; in series [5], 1.08 h. Besides, the clearance in series [6] was determined as 9 mL/min/kg.

For the molecule `Cc1ccc(CCOc2ccc(-c3c(C)nc(C)c([C@H](OC(C)(C)C)C(=O)O)c3N3CCC(C)(C)CC3)cc2)cc1`, the IC50 in series [1] stood at 15.5 nM. Also, the EC50 in series [2] (setting [7]) was determined as 14.7 nM. In series [3], the CC50 at 96 h was not below 33500 nM.

For the molecule `Cc1nc(C)c([C@H](OC(C)(C)C)C(=O)O)c(N2CCC(C)(C)CC2)c1-c1ccc(SCCc2ccc(F)cc2)cc1`, in series [1], the IC50 is 98 nM. Also, in series [2] (setting [7]), the EC50 stood at 15.6 nM. For the same molecule, the CC50 at 96 h in series [3] was not below 32000 nM. Besides, the half-life at 0.5 µM in series [4] and in series [5] was more than 2 h each time.

In the case of `Cc1nc(C)c([C@H](OC(C)(C)C)C(=O)O)c(N2CCC(C)(C)CC2)c1-c1ccc(Oc2ccccc2)cc1`, in series [1], the IC50 turned out to be 53.5 nM. In addition, the EC50 in series [2] (setting [7]) amounted to 37.5 nM. The CC50 at 96 h in series [3] was not below 20000 nM.

Consider `Cc1nc(C)c([C@H](OC(C)(C)C)C(=O)O)c(N2CCC(C)(C)CC2)c1-c1ccccc1`, for which the IC50 in series [1] came out at 55.5 nM. Moreover, the EC50 in series [2] (setting [7]) was found to be 67 nM.

As for `Cc1nc(C)c([C@H](OC(C)(C)C)C(=O)O)c(N2CCC(C)(C)CC2)c1-c1ccc(OCCc2ccncc2)cc1`, in series [2] (setting [7]), the EC50 turned out to be 0.6 nM. In addition, the CC50 at 96 h in series [3] was not below 25000 nM.

On to `Cc1nc(C)c([C@H](OC(C)(C)C)C(=O)O)c(N2CCC(C)(C)CC2)c1-c1ccc(OCCc2ccc(Cl)cc2)cc1`, for which the half-maximal inhibitory concentration (IC50) in series [1] stood at 30.4 nM. Moreover, the EC50 in series [2] (setting [7]) was determined as 12 nM. The CC50 at 96 h in series [3] was not below 33500 nM.

Take `COc1cccc(CCOc2ccc(-c3c(C)nc(C)c([C@H](OC(C)(C)C)C(=O)O)c3N3CCC(C)(C)CC3)cc2)c1`: in series [1], the IC50 was determined as 15.9 nM. Moreover, the EC50 in series [2] (setting [7]) came out at 1.7 nM. Also, the CC50 at 96 h in series [3] is not below 33500 nM. Besides, the half-life at 0.5 µM in series [4] and in series [5] was more than 2 h in each case.

As for `Cc1nc(C)c([C@H](OC(C)(C)C)C(=O)O)c(N2CCC(C)(C)CC2)c1-c1ccc(OCCCc2ccc(F)cc2)cc1`, in series [1], the IC50 was determined as 35.5 nM. Moreover, the EC50 in series [2] (setting [7]) stood at 11.9 nM. The CC50 at 96 h in series [3] was not below 32000 nM. Further, the half-life at 0.5 µM in series [4] and in series [5] was more than 2 h each time.

Take `Cc1nc(C)c([C@H](OC(C)(C)C)C(=O)O)c(N2CCC(C)(C)CC2)c1-c1ccc(OCCc2ccccn2)cc1`: the IC50 in series [1] is 16.7 nM. For the same molecule, in series [2] (setting [7]), the EC50 came to 0.9 nM. For the same molecule, the CC50 at 96 h in series [3] was not below 25000 nM. The half-life at 0.5 µM was determined as 1.02 h in series [4] and 0.5 h in series [5].

For the molecule `Cc1cc(CCOc2ccc(-c3c(C)nc(C)c([C@H](OC(C)(C)C)C(=O)O)c3N3CCC(C)(C)CC3)cc2)ccc1F`, in series [1], the IC50 turned out to be 21.1 nM. Also, the EC50 in series [2] (setting [7]) was 4.8 nM. Further, the CC50 at 96 h in series [3] was not below 33500 nM. The half-life at 0.5 µM in series [4] and in series [5] was more than 2 h each time. Besides, in series [6], the clearance was 7.8 mL/min/kg.

As to `Cc1nc(CCOc2ccc(-c3c(C)nc(C)c([C@H](OC(C)(C)C)C(=O)O)c3N3CCC(C)(C)CC3)cc2)cs1`, in series [1], the IC50 was determined as 32.6 nM. Moreover, the EC50 in series [2] (setting [7]) is 5 nM. In series [3], the CC50 at 96 h was not below 25000 nM. The half-life at 0.5 µM in series [4] was found to be 1.75 h; in series [5] it was 0.683 h.

With `Cc1ccc(CCOc2ccc(-c3c(C)nc(C)c([C@H](OC(C)(C)C)C(=O)O)c3N3CCC(C)(C)CC3)cc2)s1`, the IC50 in series [1] was determined as 49.2 nM. Moreover, the EC50 in series [2] (setting [7]) is 4.4 nM. The CC50 at 96 h in series [3] is not below 25000 nM. In addition, the half-life at 0.5 µM in series [4] and in series [5] was more than 2 h in each case.

With `Cc1nc(C)c([C@H](OC(C)(C)C)C(=O)O)c(N2CCC(C)(C)CC2)c1-c1ccc(OCCc2cc(F)c(F)cc2F)cc1`, the IC50 in series [1] worked out at 18.1 nM. Further, the EC50 in series [2] (setting [7]) was 3.3 nM. Further, the CC50 at 96 h in series [3] is not below 33500 nM. For the same molecule, the half-life at 0.5 µM in series [4] and in series [5] was more than 2 h throughout. In series [6], this molecule yielded a clearance of 8.1 mL/min/kg.

As for `Cc1nc(C)c([C@H](OC(C)(C)C)C(=O)O)c(N2CCC(C)(C)CC2)c1-c1ccc(-c2ccccc2)cc1`, the IC50 in series [1] is 30.7 nM. In series [2] (setting [7]), the EC50 was determined as 31.2 nM. Moreover, the cytotoxic concentration (CC50) at 96 h in series [3] was not below 20000 nM.

As for `Cc1nc(C)c([C@H](OC(C)(C)C)C(=O)O)c(N2CCC(C)(C)CC2)c1-c1ccc(OCCc2ccccc2)cc1`, the IC50 in series [1] stood at 9.4 nM. In addition, the EC50 in series [2] (setting [7]) is 2.3 nM. For the same molecule, in series [3], the cytotoxic concentration (CC50) at 96 h is not below 20000 nM. Further, the half-life at 0.5 µM in series [4] and in series [5] was more than 2 h throughout.

Consider `Cc1nc(C)c([C@H](OC(C)(C)C)C(=O)O)c(N2CCC(C)(C)CC2)c1-c1ccc(CCCc2ccc(F)cc2)cc1`, for which the IC50 in series [1] was found to be 73.3 nM. Besides, the EC50 in series [2] (setting [7]) came out at 22.6 nM. Besides, in series [3], the CC50 at 96 h is not below 32000 nM. In addition, the half-life at 0.5 µM in series [4] and in series [5] was more than 2 h in each case.

Regarding `Cc1nc(C)c([C@H](OC(C)(C)C)C(=O)O)c(N2CCC(C)(C)CC2)c1-c1ccc(OCc2ccccc2)cc1`, in series [1], the IC50 amounted to 30.2 nM. The EC50 in series [2] (setting [7]) amounted to 11.3 nM. For the same molecule, the CC50 at 96 h in series [3] is not below 20000 nM.

In the case of `Cc1nc(C)c([C@H](OC(C)(C)C)C(=O)O)c(N2CCC(C)(C)CC2)c1-c1ccc(OCCc2cc(F)ccc2F)cc1`, in series [1], the IC50 came out at 14.7 nM. The EC50 in series [2] (setting [7]) amounted to 2.8 nM. Moreover, the CC50 at 96 h in series [3] is not below 33500 nM. In series [6], this molecule yielded a clearance of 18.7 mL/min/kg.

Consider `Cc1nc(C)c([C@H](OC(C)(C)C)C(=O)O)c(N2CCC(C)(C)CC2)c1-c1ccc(OCCc2cccnc2)cc1`, for which, in series [1], the IC50 was found to be 19.3 nM. For the same molecule, the EC50 in series [2] (setting [7]) came out at 1.3 nM. In addition, the CC50 at 96 h in series [3] is not below 25000 nM. Besides, the half-life at 0.5 µM in series [4] came out at 0.783 h; in series [5] it was 0.367 h.

In the case of `CCc1cccc(CC)c1-c1cc(-c2ccc3c4c(ccnc24)CCO3)c(C(OC(C)(C)C)C(=O)O)c(C)n1` (racemic), the IC50 in series [1] was found to be 100000 nM. Moreover, in series [2] (setting [7]), the EC50 amounted to 190 nM.

`Cc1nc(C)c([C@H](OC(C)(C)C)C(=O)O)c(N2CCC(C)(C)CC2)c1-c1ccc(OC2CCCC2c2ccc(F)cc2)cc1` (stereo in doubt; 39a): the IC50 in series [1] is 35.5 nM. In series [2] (mt2), the EC50 came to 12 nM. The CC50 at 96 h in series [3] is not below 32000 nM.

Turning to `Cc1nc(C)c([C@H](OC(C)(C)C)C(=O)O)c(N2CCC(C)(C)CC2)c1-c1ccc(OC2CCCC2c2ccc(F)cc2)cc1` (stereo in doubt; 39b), the IC50 in series [1] came out at 17.7 nM. Also, the EC50 in series [2] (mt2) was determined as 5 nM.

Regarding `Cc1nc(C)c([C@H](OC(C)(C)C)C(=O)O)c(N2CCC(C)(C)CC2)c1-c1ccc(OC2COCC2c2ccc(F)cc2)cc1` (stereo in doubt; 40a), the IC50 in series [1] came to 4.9 nM. Further, the EC50 in series [2] (mt2) is 2 nM. The CC50 at 96 h in series [3] is not below 32000 nM.
